Data taken from patent US5750504A, “Antimicrobial proteins” (Zeneca Agrochemicals, priority 1996, dated 1998).

Legend:
Assay type in all cases: cell-based
Eschericia coli HB101 = assay: Antibacterial activity assay (microspectrophotometry); settings: tested at 200 μg/ml
Procedure: (§1) Antibacterial activity was measured microspectrophotometrically as follows. A bacterial suspension was prepared by inoculating soft nutrient agarose (tryptone, 10 g/l; Seaplaque agarose (FMC), 5 g/l). Aliquots (80 μl) of the bacterial suspension (10^5 colony forming units per ml) were added to filter-sterilized samples (20 μl) in flat-bottom 96-well microplates. The absorbance at 595 nm of the culture was measured with the aid of a microplate reader after 30 minutes and 24 hours of incubation at 28° C. Percent growth inhibition was calculated as described above for the antifungal activity assay.
(§2) The antibacterial activities of Ah-AMP1 and Hs-AFP1 were measured on four gram positive bacteria (Bacillus subtilis JHCC 553331; Micrococcus luteus ATCC 93411; Staphylococcus aureus ATCC 25923; Streptococcus feacolis ATCC 29212) and two gram negative bacteria (Eschericia coli HB101 and Proteus vulgaris JHCC 558711).

[1] = tested on: Micrococcus luteus ATCC 93411; assay: as above; settings: tested at 200 μg/ml
Procedure: as §1, §2

[2] = tested on: Proteus vulgaris JHCC 558711; assay: as above; settings: tested at 200 μg/ml
Procedure: as §1, §2

[3] = tested on: Staphylococcus aureus ATCC 25923; assay: as above; settings: tested at 200 μg/ml
Procedure: as §1, §2

[4] = tested on: Streptococcus feacolis ATCC 29212; assay: as above; settings: tested at 200 μg/ml
Procedure: as §1, §2

Acremonium hyalinum = assay: Antifungal activity assay (microspectrophotometry); settings: strain FAJ98, host Musa, inoculum Sp, period of incubation in AFP-solution 64
Procedure: (§3) Antifungal activity was measured by microspectrophotometry as previously described (Broekaert, 1990, FEMS Microbiol Lett, 69:55-60). Routinely, tests were performed with 20 μl of a (filter-sterilized) test solution and 80 μl of a suspension of fungal spores (2×10^4 spores/ml) in half strength potato dextrose broth (1/2 PDB). […] Control microcultures contained 20 μl of sterile distilled water and 80 μl of the fungal spore suspension.
(§4) Unless otherwise stated the test organism was Fusarium culmorum (strain IMI 180420) and incubation was done at 25° C. for 48 hours. Percent growth inhibition is defined as 100 times the ratio of the corrected absorbance of the control microculture minus the corrected absorbance of the test microculture over the corrected absorbance at 595 nm of the control microculture. The corrected absorbance values equal the absorbance at 595 nm of the culture measured after 48 hours minus the absorbance at 595 nm measured after 30 min.
(§5) The antifungal potency of the purified proteins was assessed on different plant pathogenic fungi, using the assay described in Example 1. Growth of fungi, collection and harvest of fungal spores and preparation of mycelial fragments were done as previously described (Broekaert et al, 1990, FEMS Microbiol Lett, 69:55-60). Serial dilutions of the antifungal proteins were applied to the fungi, either using growth medium SMF- (the synthetic growth medium of Example 1), medium SMF+ (medium SMF- supplemented with 1 mM CaCl2 and 50 mM KCl), growth medium 1/2 PDB- (half strength potato dextrose broth as in Example 1) or growth medium 1/2 PDB+ (medium 1/2 PDB- supplemented with 1 mM CaCl2 and 50 mM Kcl). The percent growth inhibition was measured by microspectrophotometry. The concentration required for 50% growth inhibition after 48 h of incubation (IC50 value) was calculated from the dose-reponse curves.
(§6) The abbreviations used are: IC50 =concentration required for 50% growth inhibition determined as described in Example 1; ND=not determined; Sp=spores; PrSp=spores pregerminated in the medium for 24 hours; MF=mycelial fragments preincubated for 48 hours in the medium prior to addition of the proteins; BHR=broad host range; SF=saprophytic fungus; SMF-=synthetic growth medium as described in Example 1; SMF+=SMF- supplemented with 1 mM CaCl2 and 50 mM KCl; 1/2PDB-=half strength potato dextrose broth as described in Example 1; 1/2PDB+=1/2PDB- supplemented with 1 mM CaCl2 and 50 mM KCl.

Alternaria brassicola = assay: Antifungal activity assay (microspectrophotometry); settings: strain MUCL20297, host Brassica, inoculum Sp, period of incubation in AFP-solution 48
Procedure: as §3, §4, §5, §6

Curvularia affinis = assay: Antifungal activity assay (microspectrophotometry); settings: strain FAJ97, host Musa, inoculum Sp, period of incubation in AFP-solution 40
Procedure: as §3, §4, §5, §6

Gloeosporium musarum = assay: Antifungal activity assay (microspectrophotometry); settings: for IC50: inoculum Sp, period of incubation in AFP-solution 40
Procedure: as §3, §4, §5, §6

Glomerella cingulata = assay: Antifungal activity assay (microspectrophotometry); settings: strain FAJ76, host Musa, inoculum Sp, period of incubation in AFP-solution 64
Procedure: as §3, §4, §5, §6

Substance	inhibition of bacterial growth (Eschericia coli HB101)	inhibition of bacterial growth [1]	inhibition of bacterial growth [2]	inhibition of bacterial growth [3]	inhibition of bacterial growth [4]	IC50 (Acremonium hyalinum; medium SMF+)	IC50 (Acremonium hyalinum; medium SMF-)	IC50 (Alternaria brassicola; medium SMF+)	IC50 (Alternaria brassicola; medium SMF-)	IC50 (Curvularia affinis; medium SMF+)	IC50 (Curvularia affinis; medium SMF-)	reduction of activity in medium SMF- versus SMF+ (Gloeosporium musarum; on Gloeosporium musarum)	IC50 (Gloeosporium musarum; strain FAJ86, host Muaa, medium SMF+)	IC50 (Gloeosporium musarum; strain FAJB6, host Musa, medium SMF-)	IC50 (Glomerella cingulata; medium SMF+)	IC50 (Glomerella cingulata; medium SMF-)
Hs-AFP1: Heuchera sanquinea antifungal protein 1; 5 kDa polypeptide purified from seeds, 54 amino acids, SEQ ID NO 1 (DGVKLCDVPSGTWSGHCGSSSKCSQQCKDREHFAYGGACHYQFPSVKCFCKRQC)	did not inhibit the growth	did not inhibit the growth	did not inhibit the growth	did not inhibit the growth	did not inhibit the growth											
Ah-AMP1: Aesculus hippocastanum antimicrobial protein 1; 5 kDa polypeptide purified from seeds, 50 amino acids, SEQ ID NO 2 (LCNERPSQTWSGNCGNTAHCDKQCQDWEKASHGACHKRENHWKCFCYFNC)						12.5 µg/mL	< 0.75 µg/mL	12 µg/mL	1.5 µg/mL	25 µg/mL	0.75 µg/mL	more than ten-fold	12.5 µg/mL	< 0.75 µg/mL	12.5 µg/mL	< 0.75 µg/mL
